# According to patent EP4663632A1, “COMPOUNDS USEFUL FOR THE MODULATION OF THE ACTIVITY OF STING” (Sulis Therapeutics ApS, priority 2024, dated 2025):
# Legend:
# [1] = target: T1, C-terminal domain (CTD) of human STING (Homo sapiens, UniProt Q86WV6); experiment: STING binding FP assay I; set-up: recombinant human STING protein (155-379); conditions: 35 nM STING, 4 nM Probe 1
# Description: (§1) The interaction between molecules and the C-terminal domain (CTD) of human STING was evaluated using a competition binding assay. In this assay, recombinant human STING protein (155-379) and a STING binding fluorescent probe were employed. Upon binding of the probe to STING, the rotation of the fluorescent probe is slowed due to the larger molecular size of the protein-bound complex. As a result, emitted light retains its plane of polarization, leading to an increase in fluorescence polarization. Molecules competing for the probe binding site displace the probe, which leads to rapid randomization of the polarization plane of the emitted light and a subsequent decrease in measured fluorescence polarization signal. Change in polarization was measured, allowing a comparative evaluation of the binding affinities of different compounds to the target protein.
# (§2) The assay was performed in 96-well plates (ThermoFisher, cat.# 237108) containing 100µl : 10 µL test compound in 10% DMSO and buffer A (150 mM NaCl, 50 mM HEPES pH 7.5, 1 mM DTT) + 90 µL prepared master mix solution of: 4 nM fluorescein-labelled STING ligand (Probe 1; synthesis described above) in buffer A + 0.055% Tween-20 (v/v) and 35 nM STING in buffer A. Post mixing, plates were agitated at 600rpm and incubated for 20 min at room temperature. Subsequent measurements of the fluorescence polarization signal were made on a BioTek Synergy-H1 plate reader, using a polarization filter; Exc: 485/20 nm, Em: […]) with a gain-setting of 75. IC50 values were determined using a standard non-linear regression four-parameter curve fit in Graphpad Prism.
# [2] = target: T1, C-terminal domain (CTD) of human STING; experiment: STING binding FP assay II; set-up: recombinant human STING protein (155-379); conditions: 7 nM STING
# Description: as §1, §2
# The procedure for STING binding FP assay II is the same as described for STING binding FP assay I, except for a lower STING concentration. In STING binding FP assay II, a concentration of 7 nM STING in buffer A was used.
# STING [3] = target: T2, STING (Homo sapiens, UniProt Q86WV6); experiment: Western Blot analysis of STING phosphorylation in human fibroblast cells (STING agonism); assay type: cell-based; set-up: host or cells: HFF-1 human foreskin fibroblasts; conditions: 7.2µM-3.6nM; 24h
# Description: Human fibroblast were treated with a titration of E22, E9, E14 and E16 (7.2µM-3.6nM) for 24h prior to cell lysis and subsequently total STING, pSTING and Vinculin were assessed by western blot using rabbit anti-STING (1:1000), anti-pSTING (1:1000), anti-Vinculin (1:1000) and 2nd anti-rabbit-HRP (1:10.000) or anti-mouse-HRP (1:7500). Proteins were visualized using ImageQuant800. Control cells included untreated cells and cells treated with 300nM diABZI C3.
# [4] = target: T1, C-terminal domain (CTD) of human STING; experiment: STING binding FP assay III; set-up: recombinant human STING protein (155-379); conditions: 10 nM STING (FP assay III according to the text); read-out: STING binding FP assay II, IC50
# Description: as §1, §2
# The procedure for STING binding FP assay III is the same as described for STING binding FP assay I, except for a lower STING concentration. In STING binding FP assay III, a concentration of 10 nM STING in buffer A was used.
# STING [5] = target: T2, STING; experiment: Western Blot analysis for STING degradation (DC50) in HFF-1 cells; assay type: cell-based; set-up: host or cells: HFF-1 human foreskin fibroblasts; conditions: 24h
# Description: To assess STING degradation in human foreskin fibroblasts HFF-1 cells (ATCC, SCRC-1041) cells were seeded at a density of 60.000 cells/well in 24-well Nunclon Delta surface treated culture plate in DMEM growth medium (supplemented with 10% FBS, 1% Pen-strep). Cells were incubated over-night at 37°C 5% CO2 to allow adhesion. Next day growth medium was renewed and a 5x concentration of test compounds (2.5% DMSO) diluted in growth medium were added to the appropriate well. The final DMSO concentration were 0.5%. Cell culture plates were returned to the incubator for additional 24h.
# (§3) For cell lysing for Western Blot analysis cell culture plates were brought to ice, supernatant was removed by aspiration and cells washed 2x in ice-cold DPBS. Cells were lysed in 65 µL of RIPA buffer supplemented with cOmplete ULTRA Tablets protease inhibitor cocktail, PIERCE Phosphatase inhibitor mini tablet, Benzonase and 10mM NaF for 20 min on ice. Lysates were collected, cleared by centrifugation (13000xg for 10 min at 4°C). Samples were either analysed directly or stored at -80°C until analysis.
# (§4) For Western Blotting, total protein concentration in each lysate was determined using PIERCE Gold BCA Assay kit according to manufactures protocol. 6 µg of total protein was mixed with 2x Laemmli buffer containing DTT, boiled for 5 min at 95°C, cooled on ice and loaded into each well of a 4-20% Criterion TGX gel. Proteins were separated by electrophoresis, by running for 1h at 150V. After separation proteins were blotted onto a PVDF membrane by semi-dry transfer using Trans-Blot turbo system at pre-defined BioRad MIDI protocol; 25V, 1A (fixed) for 30 min. Membranes were blocked for 1h in 5% skim milk in TBS-T20 on a rocker at room temperature followed by washing and exposure to primary antibodies against human STING 1:1000 (Cell Signalling, #13647) or loading controls Vinculin 1:1000 (Cell Signalling, #13901) or beta-Actin 1:10000 (Sigma, A5441) all diluted in 5% BSA in TBS-T20. Membranes were probed over night at 4°C on a rocker. Membranes were washed 3x in TBS-T20 followed by exposure to secondary HRP-conjugated anti-rabbit antibody or HRP-conjugated anti-mouse antibody diluted 1:10000 in 5% skim milk in TBS-T20 as appropriate. Membranes were incubated for 1h at room temperature on a rocker, then washed 3x in TBS-T20.
# (§5) For generating DC50 values, the intensity of individual bands was measured using imaged and expression levels were calculated as a ratio of STING intensities vs. Reference protein intensities and normalized to DMSO control. The normalized ratios were plotted on a XY curve in GraphPad Prism where DC50 was estimated using a 4-parameter non-linear regression fitting curve.
# STING [6] = target: T2, STING; experiment: Western Blot analysis for STING degradation in H596 cells; assay type: cell-based; conditions: 24h; reference protein beta-actin
# Description: as §3, §4, §5
# To assess STING degradation in H596 cells (ATCC, HTB-178) cells were seeded at a density of 100.000 cells/well in 24-well Nunclon Delta surface treated culture plate in RPMI-1640 growth medium (supplemented with 10% FBS, 1% Pen-strep). Cells were incubated over-night at 37°C 5% CO2 to allow adhesion. Next day growth medium was renewed and a 5x concentration of test compounds (2.5% DMSO) diluted in growth medium were added to the appropriate well. Final DMSO concentration was 0.5%. Cell culture plates were returned to the incubator for additional 24h. Final test compound concentrations were 0.22 µM, 0.67 µM, 2 µM and 6 µM.
# For cell lysis, western blotting and data analysis, the methods described above for HFF-1 cells were applied.
# STING [7] = target: T2, STING; experiment: Western Blot analysis for S1 STING ligand antagonism in primary human skin fibroblasts; assay type: cell-based; set-up: host or cells: HFF-1 human foreskin fibroblasts; conditions: 5 µM; 2 h or 1 h before, simultaneously with, or 15 minutes after 0.3 µM diABZI
# Description: To assess whether S1 STING ligands inhibit STING activation, primary human skin fibroblasts (Figure 5) or HFF-1 cells (Figure 6) were treated with various compounds which comprise only an S1 ligand domain and a Linker domain before undergoing Western Blot analysis as described below. Compounds A9, A11, A26 and A30 used in the following experiments share a common S1 ligand, which is also shared by Example compounds 1, 3, 5-29, 33-38.
# Cells were incubated with A9 or A11 for 1 or 2 hours before addition of diABZI c3, treated with test compound and diABZI c3 simultaneously, or treated with A9 or A11 after 15 minutes incubation with diABZI c3. As a control, cells were also treated with diABZI c3 alone.
# STING [8] = target: T2, STING; experiment: Western Blot analysis of inhibition of STING activation in HFF-1 cells; assay type: cell-based; set-up: host or cells: HFF-1 human foreskin fibroblasts; conditions: for STING, TBK1 and IRF1 phosphorylation: 2 h or 5 h
# Description: To assess whether S1 STING ligands inhibit STING activation, primary human skin fibroblasts (Figure 5) or HFF-1 cells (Figure 6) were treated with various compounds which comprise only an S1 ligand domain and a Linker domain before undergoing Western Blot analysis as described below.
# The cells were lysed and analysed on WB. […] The WB membrane was probed for p-STING, STING, p-IRF3, p-TBK1, and Vinculin.
# T1 sequence (Q86WV6 155-379): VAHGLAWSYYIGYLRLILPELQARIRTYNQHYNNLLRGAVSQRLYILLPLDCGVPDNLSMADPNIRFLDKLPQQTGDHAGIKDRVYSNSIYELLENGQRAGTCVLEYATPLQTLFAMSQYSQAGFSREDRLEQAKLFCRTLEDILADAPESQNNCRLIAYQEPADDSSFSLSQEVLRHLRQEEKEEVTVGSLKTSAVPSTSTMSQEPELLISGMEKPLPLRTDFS
# T2 sequence (Q86WV6 whole entry): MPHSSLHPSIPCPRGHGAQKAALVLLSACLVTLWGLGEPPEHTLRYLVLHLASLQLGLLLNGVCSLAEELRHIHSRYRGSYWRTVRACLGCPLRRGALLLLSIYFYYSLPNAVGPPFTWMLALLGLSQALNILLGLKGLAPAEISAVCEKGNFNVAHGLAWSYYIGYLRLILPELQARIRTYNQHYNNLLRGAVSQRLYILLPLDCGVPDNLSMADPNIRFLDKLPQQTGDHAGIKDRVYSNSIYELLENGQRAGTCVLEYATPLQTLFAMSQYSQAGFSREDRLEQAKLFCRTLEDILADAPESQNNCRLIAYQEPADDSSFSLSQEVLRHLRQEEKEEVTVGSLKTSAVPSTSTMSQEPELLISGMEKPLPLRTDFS
compound,measurement,setting,value
"CCn1nc(C)cc1C(=O)N=c1n(C)c2cc(C(N)=O)ccc2n1CCC(CCn1c(=NC(=O)c2cc(C)nn2CC)n(C)c2cc(C(N)=O)ccc21)OCC(=O)O (stereo not shown) [Building Block G-4, (3-{5-Carbamoyl-2-[(1-ethyl-3-methyl-5-pyrazolyl)carbonylimino]-3-methyl-2,3-dihydro-1H-1,3-benzimidazol-1-yl}-1-(2-{5-carbamoyl-2-[(1-ethyl-3-methyl-5-pyrazolyl)carbonylimino]-3-methyl-2,3-dihydro-1H-1 ,3-benzimidazol-1-yl}ethyl)propoxy)acetic acid]",IC50,[1],< 30 nM
CCn1nc(C)cc1C(=O)N=c1n(C)c2cc(C(N)=O)ccc2n1CCC(CCn1c(=NC(=O)c2cc(C)nn2CC)n(C)c2cc(C(N)=O)ccc21)OCC(=O)NCCOCCOCCOCCOCCOc1cccc(C(=O)c2csc([C@@H]3CCCN3C(=O)[C@@H](NC(=O)[C@H](C)NC)C3CCCCC3)n2)c1 (stereo partly shown) [Example 9],IC50,[2],8.4 nM
same,STING phosphorylation (pSTING),STING [3],no STING phosphorylation was observed
CCn1nc(C)cc1C(=O)N=c1n(C)c2cc(C(N)=O)ccc2n1CCC(CCn1c(=NC(=O)c2cc(C)nn2CC)n(C)c2cc(C(N)=O)ccc21)OCC(=O)NCCOCCOCCOCCOc1cccc(C(=O)c2csc([C@@H]3CCCN3C(=O)[C@@H](NC(=O)[C@H](C)NC)C3CCCCC3)n2)c1 (stereo partly shown) [Example 22],STING phosphorylation (pSTING),STING [3],no STING phosphorylation was observed
CCn1nc(C)cc1C(=O)N=c1n(C)c2cc(C(N)=O)ccc2n1CCC(CCn1c(=NC(=O)c2cc(C)nn2CC)n(C)c2cc(C(N)=O)ccc21)OCC(=O)NCCOCCOCCOCCOCCC(=O)NCCOCCOCCOCCOCCOCCNc1cccc2c1C(=O)N(C1CCC(=O)NC1=O)C2=O (stereo not shown) [Example 25],IC50,[4],3.1 nM
same,DC50,STING [5]; reference protein beta-actin,< 200 nM
CCn1nc(C)cc1C(=O)N=c1n(C)c2cc(C(N)=O)ccc2n1CCC(CCn1c(=NC(=O)c2cc(C)nn2CC)n(C)c2cc(C(N)=O)ccc21)OCC(=O)NCCOCCOCCOCCOCCC(=O)NCCOCCOCC(=O)N[C@H]1C[C@@H](C(=O)N[C@@H]2CCCc3ccccc32)N(C(=O)[C@@H](NC(=O)[C@H](C)NC)C2CCCCC2)C1 (stereo partly shown) [Example 26],IC50,[4],4.4 nM
same,DC50,STING [5]; reference protein vinculin,< 200 nM
CCn1nc(C)cc1C(=O)N=c1n(C)c2cc(C(N)=O)ccc2n1CCC(CCn1c(=NC(=O)c2cc(C)nn2CC)n(C)c2cc(C(N)=O)ccc21)OCC(=O)NCCOCCOCCOCCOCCC(=O)N(C)CCOCCOCCOCCOCCC(=O)N[C@H](C(=O)N1C[C@H](O)C[C@H]1C(=O)N[C@@H](C)c1ccc(-c2scnc2C)cc1)C(C)(C)C (stereo partly shown) [Example 27],DC50,STING [6],< 200 nM
same,IC50,[4],4.5 nM
"CCn1nc(C)cc1C(=O)N=c1n(C)c2cc(C(N)=O)ccc2n1CCC(CCn1c(=NC(=O)c2cc(C)nn2CC)n(C)c2cc(C(N)=O)ccc21)OCC(=O)N1CCC[C@H]1c1cccc(OC)c1 (stereo partly drawn) [Example A11, 1-(3-{2-[(S)-2-(3-Methoxyphenyl)-1-pyrrolidinyl]-2-oxoethoxy}-5-{5-carbamoyl-2-[(1-ethyl-3-methyl-5-pyrazolyl)carbonylimino]-3-methyl-2,3-dihydro-1H-1,3-benzimidazol-1-yl}pentyl)-2-[(1-ethyl-3-methyl-5-pyrazolyl)carbonylimino]-3-methyl-2,3-dihydro-1H-1,3-benzimidazole-5-carboxamide]",LC3B lipidation,STING [7],reduced LC3B lipidation
same,P-STING intensity (activation of STING),STING [7],reduced intensity of P-STING
same,P-TBK1 intensity,STING [7],reduced P-TBK1 intensity
same,"STING, TBK1 and IRF1 phosphorylation",STING [8]; 5 µM for 15 min prior to 300 nM diABZI,lower compared to cells treated with diABZI c3 alone
same,"STING, TBK1 and IRF1 phosphorylation",STING [8]; 5 µM for 15 min prior to 8 µg/mL cGAMP,lower compared to cells treated with cGAMP alone
same,"phosphorylation of STING, IRF1 or TBK1 (agonism)","STING [8]; compound as single agent, no activation","no phosphorylation of STING, IRF1 or TBK1 was observed"
